# Test results published in patent US6559126B2 (Institut Pasteur, priority 2000, dated 2003).
# Read-outs that look alike come from different tables or passages of the source. Ends that are not written are not given here.
# Legend:
# [1] = test system: KDR; test: Competition assay of 125I-VEGF binding to CHO-KDR cells; details: for efficiency of V1 analogues in displacing 125I-VEGF165 from CHO-KDR cells: displacement curves, FIGS. 10-11; for inhibitory effect on VEGF binding to KDR (CHO-KDR cells): fixed peptide concentration 2.1×10^−4 M, heparin present
# Description: Competition assay of binding to CHO-KDR cells. CHO-KDR cells were seeded in 24-well plates at a density of 5×10^5 cells/well. After 24 h, subconfluent plates were transferred at 4 C., and all subsequent operations were done at 4 C. […] The amount of radioactivity bound to the cells was counted in a gamma counter (LKB 1261 Multigamma). The receptor affinity and the number of binding sites per cell were determined by Scatchard's analysis (Scatchard, 1986).
# [2] = test system: HUAE cells; test: VEGF-induced HUAE cell proliferation; format: cell-based, human; details: 2 ng/ml VEGF, peptide daily, counted after 5 days
# Description: (§1) Cell proliferation assay. To test the anti-VEGF antibody neutralizing effect, CPAE cells were plated into 96-well tissue culture plates at a density of 500 cells/well. After 24 h, various concentrations of anti-VEGF antibody were added. The cells were cultured for an additional day and cell proliferation was measured using the Cell proliferation ELISA kit from Boerhinger (Indianapolis, Ind.). Cells were incubated with BrdU for 4 h at 37 C., and the incorporation of BrdU in newly synthetized DNA was quantified by immunoassay as described by the manufacturer. To investigate the peptide effect, after 24 h of CPAE cell growth, 2.1×10^−4M synthetic peptides were added daily to the culture medium. Cell proliferation was assessed after 24 h, 48 h or 72 h as described above. […] Cells were trypsinized and counted after 5 days using a Coulter counter.
# [3] = test system: HUAE cells; test: KDR anti-idiotypic antibody (AIA)-induced HUAE cell proliferation; format: cell-based, human; details: 100 ng/ml KDR anti-idiotypic antibodies, peptide daily, 5 days
# Description: as §1
# [4] = test system: VEGF-induced corneal angiogenesis; test: Rabbit corneal pocket assay; format: in vivo; details: day 12; for effect on VEGF-induced corneal angiogenic response: implant with 2 pmol VEGF and 30 nmol peptide; for corneal neovascularization by peptide alone vs vehicle: implant with 30 nmol peptide, no VEGF
# Description: Rabbit corneal pocket assay. […] These implants were inserted in New Zealand rabbit (Elevage du Trottis, Esperce, France) corneal stroma 2 mm away from the limbus (Favard et al, 1991). Neovascularization was assessed on day 12 by direct examination with a slit lamp and scored according to a 4 grade scale (grade 1: less than 1 mm long neovessels, grade 2: 1 mm long neovessels, grade 3: 1 to 2 mm long neovessels, grade 4: neovessels extending to the implant). Means and standard deviations were determined on 8 implant groups for each condition.
# [5] = target: T1, neuropilin 1 (NP1) (Homo sapiens, UniProt O14786); test: Displacement of 125I-VEGF165 binding to MDA-MB 231 cells; details: cells without VEGF-R2, expressing NP1; read-out: CI 50 of inhibition of 125I VEGF165 binding to MDA-MB cells (converted)
# T1 construct: endogenous in cells; host or cells: MDA-MB 231 breast tumoral cell line
# T1 sequence (O14786 22-923): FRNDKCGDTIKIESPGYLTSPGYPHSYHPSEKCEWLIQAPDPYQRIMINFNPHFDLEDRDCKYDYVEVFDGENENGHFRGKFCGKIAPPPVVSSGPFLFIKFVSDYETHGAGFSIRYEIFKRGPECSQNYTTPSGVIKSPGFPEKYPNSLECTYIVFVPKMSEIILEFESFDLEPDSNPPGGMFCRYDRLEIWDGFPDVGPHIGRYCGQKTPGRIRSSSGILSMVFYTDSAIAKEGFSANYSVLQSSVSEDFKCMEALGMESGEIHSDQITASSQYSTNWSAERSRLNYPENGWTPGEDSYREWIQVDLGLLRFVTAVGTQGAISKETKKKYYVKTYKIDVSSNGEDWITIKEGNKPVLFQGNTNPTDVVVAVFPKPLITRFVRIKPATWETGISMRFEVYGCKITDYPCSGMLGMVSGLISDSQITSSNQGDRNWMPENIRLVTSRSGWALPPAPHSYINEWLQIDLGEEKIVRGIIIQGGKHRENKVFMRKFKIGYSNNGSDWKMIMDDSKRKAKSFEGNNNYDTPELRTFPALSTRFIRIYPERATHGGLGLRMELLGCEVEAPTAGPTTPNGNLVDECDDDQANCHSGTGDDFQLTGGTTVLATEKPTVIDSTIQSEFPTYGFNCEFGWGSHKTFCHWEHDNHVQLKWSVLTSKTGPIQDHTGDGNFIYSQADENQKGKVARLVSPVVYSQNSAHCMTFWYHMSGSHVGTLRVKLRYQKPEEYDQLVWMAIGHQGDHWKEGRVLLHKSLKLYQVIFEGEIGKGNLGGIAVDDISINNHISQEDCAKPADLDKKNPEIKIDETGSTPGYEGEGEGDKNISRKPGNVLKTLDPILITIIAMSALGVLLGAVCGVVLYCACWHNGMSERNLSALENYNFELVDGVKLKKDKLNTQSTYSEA
# Excerpt: (§2) Experimental conditions are indicated in the legend of FIG. 10.
# [6] = test system: VEGF-R2 on HUV-EC cells; format: binding; details: for Kd: Scatchard analysis
# Excerpt: as §2
# (see FIGS. 16A, B and C).
# [7] = target: T2, KDR (Homo sapiens, UniProt P35968); test: ELISA of phage-displayed peptide binding to CHO-KDR cells; details: clones selected by anti-VEGF antibody binding, 10^12 pfu/ml
# T2 construct: expressed in transfected cells; host or cells: glycosaminoglycan-deficient pgsA 745 CHO cells, psV-7d expression vector
# T2 sequence (P35968 20-1356): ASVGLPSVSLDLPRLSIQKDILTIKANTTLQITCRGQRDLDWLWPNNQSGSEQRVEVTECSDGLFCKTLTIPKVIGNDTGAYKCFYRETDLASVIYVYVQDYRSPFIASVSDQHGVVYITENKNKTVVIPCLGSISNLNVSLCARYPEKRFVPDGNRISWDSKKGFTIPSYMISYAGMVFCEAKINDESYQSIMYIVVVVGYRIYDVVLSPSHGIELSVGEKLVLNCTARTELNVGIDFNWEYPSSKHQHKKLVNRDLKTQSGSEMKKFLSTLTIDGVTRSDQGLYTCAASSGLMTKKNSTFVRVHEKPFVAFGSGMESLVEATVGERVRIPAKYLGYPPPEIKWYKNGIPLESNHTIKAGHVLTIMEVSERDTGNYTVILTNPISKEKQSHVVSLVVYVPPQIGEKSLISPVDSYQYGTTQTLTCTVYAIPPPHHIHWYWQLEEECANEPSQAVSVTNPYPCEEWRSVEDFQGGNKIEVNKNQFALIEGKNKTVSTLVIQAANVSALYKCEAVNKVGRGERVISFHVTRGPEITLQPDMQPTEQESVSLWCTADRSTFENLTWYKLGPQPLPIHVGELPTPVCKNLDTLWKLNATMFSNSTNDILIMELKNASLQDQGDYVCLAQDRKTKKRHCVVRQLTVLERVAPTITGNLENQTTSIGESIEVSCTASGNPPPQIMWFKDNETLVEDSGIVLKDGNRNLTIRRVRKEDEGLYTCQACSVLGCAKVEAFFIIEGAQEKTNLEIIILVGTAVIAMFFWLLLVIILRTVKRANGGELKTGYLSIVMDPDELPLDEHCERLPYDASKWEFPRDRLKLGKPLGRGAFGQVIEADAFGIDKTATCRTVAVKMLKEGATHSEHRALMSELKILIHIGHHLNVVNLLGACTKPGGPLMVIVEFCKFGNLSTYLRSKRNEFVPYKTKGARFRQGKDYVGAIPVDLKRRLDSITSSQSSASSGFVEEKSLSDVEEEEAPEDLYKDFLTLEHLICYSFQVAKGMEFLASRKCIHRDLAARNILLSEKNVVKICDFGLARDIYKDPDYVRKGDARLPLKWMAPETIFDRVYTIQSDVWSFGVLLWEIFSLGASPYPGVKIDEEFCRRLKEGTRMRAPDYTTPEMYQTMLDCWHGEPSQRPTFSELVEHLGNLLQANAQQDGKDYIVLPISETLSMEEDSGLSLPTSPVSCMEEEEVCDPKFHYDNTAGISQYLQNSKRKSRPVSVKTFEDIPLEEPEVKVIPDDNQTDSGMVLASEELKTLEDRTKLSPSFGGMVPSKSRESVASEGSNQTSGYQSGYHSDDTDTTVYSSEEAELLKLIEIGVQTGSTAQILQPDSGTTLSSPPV
# Description: Exponentially growing CHO-KDR cells were seeded in 96-well microtiter plates at 7×10^4 cells/well and left overnight at 37 C. Cells were fixed with paraformaldehyde (4% in PBS) for 15 min at room temperature and washed with PBS. Wells were then filled with PBS-Glycine 0.2%, kept for 15 min at room temperature and then washed with PBS. Phage particles (10^12 or 10^13/Ml) were added to each well and incubated 2 h at room temperature. Wells were washed with PBS and the amount of bound phage was detected with peroxidase-conjugated anti-M13 phage serum (Pharmacia Biotech, Uppsala, Sweden).
# [8] = test system: HUVEC; test: VEGF165-induced HUVEC proliferation; format: cell-based, human; details: V1 400 μg/ml, various VEGF165 concentrations, 96 hours
# Description: FIG. 13 Effect of V1 (400 μg/ml) VEGF165 induced HUVEC proliferation. Various concentrations of VEGF165 were added during 96 hours.
# The inhibitory effect of V1 on Human umbilical vein endothelial cell (HUVEC) in primary culture.
# [9] = test system: CPAE cells; test: CPAE cell proliferation assay (BrdU incorporation); format: cell-based, calf
# Description: as §1
# [10] = test system: VEGF-R2-VEGF165 and NP1-VEGF165 complexes; test: Cross linking of I125 VEGF165 to HUV-EC cells; format: binding, human; details: V1 2.4×10−4M and 4.8×10−4M, I125 VEGF165 160 pM
# Excerpt: FIG. 19: Cross linking of I125 VEGF165 (160 pM) to HUV-EC cells. 1: Total binding. […] 3: V1, (2.4×10−4M). 4: V1, (4.8×10−4M).
# The 240-260 kDa complex could correspond to the […] complex and the 160-170 kDa complex could correspond to the NP1 -VEGF 165 complex. The labeling of the two complexes was decreased in the presence of the V1 peptide. (FIG. 19)
substance,measurement,setting,value
ILDNYKL [V5],"effect on VEGF binding to CHO-KDR cells, various concentrations","[1]; same conditions as V1 dose response, FIG. 5",did not modify VEGF binding
same,inhibition of VEGF-induced HUAE cell proliferation,[2],no inhibitory effect
same,inhibition of AIA-dependent HUAE cell proliferation,[3],"unlike V5, V1 could suppress"
same,effect on VEGF-induced corneal angiogenic response,[4],not modified
same,corneal neovascularization by peptide alone vs vehicle,[4],did not improve the generation of new blood vessels
ATALPP [A10],efficiency of V1 analogues in displacing 125I-VEGF165 from CHO-KDR cells,[1],significantly reduced the peptide efficiency
"ATWLPPR [V1, ATWLPPR]",IC50,[5],45200 nM
same,effect on VEGF binding to HUV-EC cells,"[6]; V1 40 μg/ml, Scatchard",inhibited only the VEGF binding to high affinity receptors
same,effect on affinity of I125 VEGF165 for receptors of transfected CHO cells (Scatchard),[1]; V1 50 μg/ml,lowered
same,effect on heparin-dependent VEGF165 binding to transfected CHO cells,[1]; V1 50 μg/ml,inhibited this heparin agonistic effect
same,inhibitory effect on VEGF binding to KDR (CHO-KDR cells),[1],showed an inhibitory effect
same,ELISA signal of phage clones on CHO-KDR cells,[7],best reactivities
same,inhibition of VEGF-induced HUVEC proliferation,[8],inhibited by V1 in a non competitive manner
same,inhibition of VEGF-induced HUAE cell proliferation,[2],suppressed the mitogenic activity of VEGF in a dose dependent manner
same,inhibition of AIA-dependent HUAE cell proliferation,[3],could suppress the AIA-dependent cell proliferation
same,reduction of CPAE cell proliferation,"[9]; 2.1×10^−4 M peptide, 24 h",60%
same,labeling of the two 125I-VEGF-receptor complexes,[10],decreased
same,effect on VEGF-induced corneal angiogenic response,[4],totally abolished
same,corneal neovascularization by peptide alone vs vehicle,[4],did not improve the generation of new blood vessels
LPPNPTK [V6],inhibitory effect on VEGF binding to KDR (CHO-KDR cells),[1],no effect on VEGF binding to KDR
same,ELISA signal of phage clones on CHO-KDR cells,[7],best reactivities
"AAWLPPK [A9, V1 analogue, substitution of the C-terminal arginine by lysine]",efficiency of V1 analogues in displacing 125I-VEGF165 from CHO-KDR cells,[1],reduced the peptide efficiency
SLPAHAR [K4],"effect on endothelial cell growth (words, discussion)",[9]; in vitro,minor effect on endothelial growth
ATWLPPA [A7],efficiency of V1 analogues in displacing 125I-VEGF165 from CHO-KDR cells,[1],totally devoid of activity
VEGF,Kd,"[6]; read-out: Kd of I125 VEGF165 on HUV-EC cells, high affinity receptors",0.117 nM
same,Kd,"[6]; read-out: Kd of I125 VEGF165 on HUV-EC cells, second (lower affinity) receptors",2.3 nM
Heparin [reference compound],optimal heparin concentration for increasing VEGF binding to CHO-KDR cells,[1],1.8 µg/mL
